Laboratory results published in the supplement of paper PMC10307832.

What was measured:
Test in all cases: relative viability (nuclei count vs DMSO), 5 days (fraction); higher = more cells survive
Sunitinib = compound: CCN(CC)CCNC(=O)c1c(C)[nH]c(/C=C2\C(=O)Nc3ccc(F)cc32)c1C [Sunitinib]
Method in brief: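 Viability was read as treated-well nuclei divided by vehicle-well nuclei, using the median across plates. Lung cancer cell lines in 1536-well plates were kept overnight at 37 °C, pinned with five √10-spaced library-drug doses, and after 5 days were Hoechst-stained, imaged at 4× and counted in MetaXpress. Plates passed only with control CV below 25% and at least one doubling.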

Sunitinib + Vorinostat = compound: CCN(CC)CCNC(=O)c1c(C)[nH]c(/C=C2\C(=O)Nc3ccc(F)cc32)c1C [Sunitinib] + O=C(CCCCCCC(=O)Nc1ccccc1)NO [Vorinostat] (partner 1 µM)
Method in brief: (§1)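 Lung cancer cell lines were seeded in 1536-well plates and dosed by pin tool the next day, with either a single drug or a fixed anchor-drug dose combined with five library-drug doses (not always all listed) spaced in √10 steps. Five days later, one step fixed the cells and stained their nuclei (final 0.05% Triton X-100, 1% formaldehyde, 1 ug/ml Hoechst), and nuclei were counted on 4× images. Relative viability is the nuclei count in treated wells divided by the count in vehicle wells, and each value is the median of duplicate plates.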

Sunitinib + Palbociclib = compound: CCN(CC)CCNC(=O)c1c(C)[nH]c(/C=C2\C(=O)Nc3ccc(F)cc32)c1C [Sunitinib] + CC(=O)c1c(C)c2cnc(Nc3ccc(N4CCNCC4)cn3)nc2n(C2CCCC2)c1=O [Palbociclib] (partner 0.5 µM)
Method in brief: as §1

Sunitinib + Trametinib = compound: CCN(CC)CCNC(=O)c1c(C)[nH]c(/C=C2\C(=O)Nc3ccc(F)cc32)c1C [Sunitinib] + CC(=O)Nc1cccc(-n2c(=O)n(C3CC3)c(=O)c3c(Nc4ccc(I)cc4F)n(C)c(=O)c(C)c32)c1 [Trametinib] (partner 0.02 µM)
Method in brief: as §1

Sunitinib + Tozasertib = compound: CCN(CC)CCNC(=O)c1c(C)[nH]c(/C=C2\C(=O)Nc3ccc(F)cc32)c1C [Sunitinib] + Cc1cc(Nc2cc(N3CCN(C)CC3)nc(Sc3ccc(NC(=O)C4CC4)cc3)n2)n[nH]1 [Tozasertib] (partner 0.1 µM)
Method in brief: as §1

Sunitinib + AZD7762 = compound: CCN(CC)CCNC(=O)c1c(C)[nH]c(/C=C2\C(=O)Nc3ccc(F)cc32)c1C [Sunitinib] + NC(=O)Nc1cc(-c2cccc(F)c2)sc1C(=O)N[C@H]1CCCNC1 [AZD7762] (partner 0.2 µM)
Method in brief: as §1

Sunitinib + Luminespib = compound: CCN(CC)CCNC(=O)c1c(C)[nH]c(/C=C2\C(=O)Nc3ccc(F)cc32)c1C [Sunitinib] + CCNC(=O)c1noc(-c2cc(C(C)C)c(O)cc2O)c1-c1ccc(CN2CCOCC2)cc1 [Luminespib] (partner 0.01 µM)
Method in brief: as §1

Sunitinib + OSI-027 = compound: CCN(CC)CCNC(=O)c1c(C)[nH]c(/C=C2\C(=O)Nc3ccc(F)cc32)c1C [Sunitinib] + COc1cccc2cc(-c3nc([C@H]4CC[C@H](C(=O)O)CC4)n4ncnc(N)c34)[nH]c12 [OSI-027] (partner 0.5 µM)
Method in brief: as §1

Sunitinib + Olaparib = compound: CCN(CC)CCNC(=O)c1c(C)[nH]c(/C=C2\C(=O)Nc3ccc(F)cc32)c1C [Sunitinib] + O=C(c1cc(Cc2n[nH]c(=O)c3ccccc23)ccc1F)N1CCN(C(=O)C2CC2)CC1 [Olaparib] (partner 8 µM)
Method in brief: as §1

Sunitinib + Pemetrexed = compound: CCN(CC)CCNC(=O)c1c(C)[nH]c(/C=C2\C(=O)Nc3ccc(F)cc32)c1C [Sunitinib] + Nc1nc2[nH]cc(CCc3ccc(C(=O)N[C@@H](CCC(=O)O)C(=O)O)cc3)c2c(=O)[nH]1 [Pemetrexed] (partner 0.2 µM)
Method in brief: as §1

Sunitinib + Foretinib = compound: CCN(CC)CCNC(=O)c1c(C)[nH]c(/C=C2\C(=O)Nc3ccc(F)cc32)c1C [Sunitinib] + COc1cc2c(Oc3ccc(NC(=O)C4(C(=O)Nc5ccc(F)cc5)CC4)cc3F)ccnc2cc1OCCCN1CCOCC1 [Foretinib] (partner 0.25 µM)
Method in brief: as §1

Sunitinib + Phenformin = compound: CCN(CC)CCNC(=O)c1c(C)[nH]c(/C=C2\C(=O)Nc3ccc(F)cc32)c1C [Sunitinib] + N=C(N)NC(=N)NCCc1ccccc1 [Phenformin] (partner 250 µM)
Method in brief: as §1

Sunitinib + Decitabine = compound: CCN(CC)CCNC(=O)c1c(C)[nH]c(/C=C2\C(=O)Nc3ccc(F)cc32)c1C [Sunitinib] + Nc1ncn([C@H]2C[C@H](O)[C@@H](CO)O2)c(=O)n1 [Decitabine] (partner 2 µM)
Method in brief: as §1

Sunitinib + Dasatinib = compound: CCN(CC)CCNC(=O)c1c(C)[nH]c(/C=C2\C(=O)Nc3ccc(F)cc32)c1C [Sunitinib] + Cc1nc(Nc2ncc(C(=O)Nc3c(C)cccc3Cl)s2)cc(N2CCN(CCO)CC2)n1 [Dasatinib] (partner 0.075 µM)
Method in brief: as §1

## NCI-H2342
Sunitinib; 0.02 µM
  relative viability: 0.96
Sunitinib; 0.06325 µM
  relative viability: 1.09
Sunitinib; 0.2 µM
  relative viability: 1.03
Sunitinib; 0.6325 µM
  relative viability: 1.01
Sunitinib; 2 µM
  relative viability: 1.11
Sunitinib + Vorinostat; first compound 0.02 µM
  relative viability: 0.622
Sunitinib + Vorinostat; first compound 0.06325 µM
  relative viability: 0.918
Sunitinib + Vorinostat; first compound 0.2 µM
  relative viability: 0.794
Sunitinib + Vorinostat; first compound 0.6325 µM
  relative viability: 0.724
Sunitinib + Vorinostat; first compound 2 µM
  relative viability: 0.889
Sunitinib + Palbociclib; first compound 0.02 µM
  relative viability: 0.446
Sunitinib + Palbociclib; first compound 0.06325 µM
  relative viability: 0.541
Sunitinib + Palbociclib; first compound 0.2 µM
  relative viability: 0.566
Sunitinib + Palbociclib; first compound 0.6325 µM
  relative viability: 0.549
Sunitinib + Palbociclib; first compound 2 µM
  relative viability: 0.579
Sunitinib + Trametinib; first compound 0.02 µM
  relative viability: 0.786
Sunitinib + Trametinib; first compound 0.06325 µM
  relative viability: 0.877
Sunitinib + Trametinib; first compound 0.2 µM
  relative viability: 0.915
Sunitinib + Trametinib; first compound 0.6325 µM
  relative viability: 0.767
Sunitinib + Trametinib; first compound 2 µM
  relative viability: 0.813
Sunitinib + Tozasertib; first compound 0.02 µM
  relative viability: 0.396
Sunitinib + Tozasertib; first compound 0.06325 µM
  relative viability: 0.616
Sunitinib + Tozasertib; first compound 0.2 µM
  relative viability: 0.539
Sunitinib + Tozasertib; first compound 0.6325 µM
  relative viability: 0.56
Sunitinib + Tozasertib; first compound 2 µM
  relative viability: 0.453
Sunitinib + AZD7762; first compound 0.02 µM
  relative viability: 0.48
Sunitinib + AZD7762; first compound 0.06325 µM
  relative viability: 0.601
Sunitinib + AZD7762; first compound 0.2 µM
  relative viability: 0.649
Sunitinib + AZD7762; first compound 0.6325 µM
  relative viability: 0.505
Sunitinib + AZD7762; first compound 2 µM
  relative viability: 0.556
Sunitinib + Luminespib; first compound 0.02 µM
  relative viability: 0.658
Sunitinib + Luminespib; first compound 0.06325 µM
  relative viability: 0.67
Sunitinib + Luminespib; first compound 0.2 µM
  relative viability: 0.868
Sunitinib + Luminespib; first compound 0.6325 µM
  relative viability: 0.778
Sunitinib + Luminespib; first compound 2 µM
  relative viability: 0.838
Sunitinib + OSI-027; first compound 0.02 µM
  relative viability: 0.663
Sunitinib + OSI-027; first compound 0.06325 µM
  relative viability: 0.657
Sunitinib + OSI-027; first compound 0.2 µM
  relative viability: 0.589
Sunitinib + OSI-027; first compound 0.6325 µM
  relative viability: 0.675
Sunitinib + OSI-027; first compound 2 µM
  relative viability: 0.703
Sunitinib + Olaparib; first compound 0.02 µM
  relative viability: 0.48
Sunitinib + Olaparib; first compound 0.06325 µM
  relative viability: 0.456
Sunitinib + Olaparib; first compound 0.2 µM
  relative viability: 0.527
Sunitinib + Olaparib; first compound 0.6325 µM
  relative viability: 0.475
Sunitinib + Olaparib; first compound 2 µM
  relative viability: 0.414
Sunitinib + Pemetrexed; first compound 0.02 µM
  relative viability: 0.731
Sunitinib + Pemetrexed; first compound 0.06325 µM
  relative viability: 0.821
Sunitinib + Pemetrexed; first compound 0.2 µM
  relative viability: 0.808
Sunitinib + Pemetrexed; first compound 0.6325 µM
  relative viability: 0.739
Sunitinib + Pemetrexed; first compound 2 µM
  relative viability: 0.843
Sunitinib + Foretinib; first compound 0.02 µM
  relative viability: 0.901
Sunitinib + Foretinib; first compound 0.06325 µM
  relative viability: 1.17
Sunitinib + Foretinib; first compound 0.2 µM
  relative viability: 1.15
Sunitinib + Foretinib; first compound 0.6325 µM
  relative viability: 1.18
Sunitinib + Foretinib; first compound 2 µM
  relative viability: 1.16
Sunitinib + Phenformin; first compound 0.02 µM
  relative viability: 0.523
Sunitinib + Phenformin; first compound 0.06325 µM
  relative viability: 0.571
Sunitinib + Phenformin; first compound 0.2 µM
  relative viability: 0.62
Sunitinib + Phenformin; first compound 0.6325 µM
  relative viability: 0.542
Sunitinib + Phenformin; first compound 2 µM
  relative viability: 0.727
Sunitinib + Decitabine; first compound 0.02 µM
  relative viability: 0.751
Sunitinib + Decitabine; first compound 0.06325 µM
  relative viability: 0.784
Sunitinib + Decitabine; first compound 0.2 µM
  relative viability: 0.708
Sunitinib + Decitabine; first compound 0.6325 µM
  relative viability: 0.819
Sunitinib + Decitabine; first compound 2 µM
  relative viability: 0.718
Sunitinib + Dasatinib; first compound 0.02 µM
  relative viability: 0.327
Sunitinib + Dasatinib; first compound 0.06325 µM
  relative viability: 0.288
Sunitinib + Dasatinib; first compound 0.2 µM
  relative viability: 0.301
Sunitinib + Dasatinib; first compound 0.6325 µM
  relative viability: 0.338
Sunitinib + Dasatinib; first compound 2 µM
  relative viability: 0.336

## NCI-H1623
Sunitinib; 0.02 µM
  relative viability: 0.98
Sunitinib; 0.06325 µM
  relative viability: 0.96
Sunitinib; 0.2 µM
  relative viability: 0.994
Sunitinib; 2 µM
  relative viability: 0.916
Sunitinib + Tozasertib; first compound 0.02 µM
  relative viability: 0.461
Sunitinib + Tozasertib; first compound 0.06325 µM
  relative viability: 0.434
Sunitinib + Tozasertib; first compound 0.2 µM
  relative viability: 0.446
Sunitinib + Tozasertib; first compound 0.6325 µM
  relative viability: 0.488
Sunitinib + Tozasertib; first compound 2 µM
  relative viability: 0.369
Sunitinib + Luminespib; first compound 0.02 µM
  relative viability: 0.545
Sunitinib + Luminespib; first compound 0.06325 µM
  relative viability: 0.545
Sunitinib + Luminespib; first compound 0.2 µM
  relative viability: 0.682
Sunitinib + Luminespib; first compound 0.6325 µM
  relative viability: 0.611
Sunitinib + Luminespib; first compound 2 µM
  relative viability: 0.464
Sunitinib + OSI-027; first compound 0.02 µM
  relative viability: 0.45
Sunitinib + OSI-027; first compound 0.06325 µM
  relative viability: 0.393
Sunitinib + OSI-027; first compound 0.2 µM
  relative viability: 0.474
Sunitinib + OSI-027; first compound 0.6325 µM
  relative viability: 0.407
Sunitinib + OSI-027; first compound 2 µM
  relative viability: 0.358
Sunitinib + Foretinib; first compound 0.02 µM
  relative viability: 0.83
Sunitinib + Foretinib; first compound 0.06325 µM
  relative viability: 0.843
Sunitinib + Foretinib; first compound 0.2 µM
  relative viability: 0.955
Sunitinib + Foretinib; first compound 0.6325 µM
  relative viability: 0.977
Sunitinib + Foretinib; first compound 2 µM
  relative viability: 0.872
Sunitinib + Phenformin; first compound 0.02 µM
  relative viability: 0.649
Sunitinib + Phenformin; first compound 0.06325 µM
  relative viability: 0.499
Sunitinib + Phenformin; first compound 0.2 µM
  relative viability: 0.581
Sunitinib + Phenformin; first compound 0.6325 µM
  relative viability: 0.675
Sunitinib + Phenformin; first compound 2 µM
  relative viability: 0.49
Sunitinib + Dasatinib; first compound 0.02 µM
  relative viability: 0.612
Sunitinib + Dasatinib; first compound 0.06325 µM
  relative viability: 0.507
Sunitinib + Dasatinib; first compound 0.2 µM
  relative viability: 0.574
Sunitinib + Dasatinib; first compound 0.6325 µM
  relative viability: 0.58
Sunitinib + Dasatinib; first compound 2 µM
  relative viability: 0.543
